Like-named read-outs stand apart in the source and are kept apart here.
Assays:
[1] = system: MES-SA/DX5 (multi-drug resistant human uterine sarcoma cell line); experiment: In vitro activity against multi-drug resistant cell line MES-SA/DX5; assay type: cell-based
Procedure: (§1) The cell lines were maintained in RPMI1640 (GIBCO) supplemented with 10% FCS, 100 units/ml penicillin, 100 ug/ml streptomycin, and 2 mM L-glutamine. The cells were split every third day and diluted to a concentration of 2×10^5 cells/ml one day before experiment. All experiments were performed on exponentially growing cell culture. Cell densities were 2.5×10^4 cells/ml in all experiment.
(§2) A stock solution of Compound (1) and a stock solution of Taxol (positive control) were prepared by dissolving the compound at a concentration of 1 mM in 100% DMSO. Final concentrations were obtained by diluting the stock solution directly into the tissue culture medium. Cells were incubated with varying concentrations of the compounds for 72 hours and the IC50 was determined by MTS (i.e. 3-(4,5,-dimethylthiazol-2-yl)-2,5-diphenyl tetrazolium bromide) assay. IC50 stands for the concentration of compound required to inhibit 50% tumor cell growth.
(§3) In vitro activity was determined in two MDR (Multi Drug Resistant) human cancer cell lines. HL-60/TX1000 was isolated in vitro by subculturing HL-60 in progressively higher concentration of Taxol. HL-60/TX1000 cells over-express mdr-1 mRNA and p-glycoprotein, as determined by western blot and immunofluorescence labeling with antiPGP antibodies. The cell is cross-resistant to Taxol, Vincristine, Adriamycin, Etoposide and Doxorubicin. MES-SA/Dx5 was established in the presence of increasing concentrations of Doxorubicin. […] MES-SA/Dx5 was purchased from ATCC.
(§4) The procedure for culturing the cells and assaying cancer cell growth inhibition were as described in Example 3.
The protocol described in Examples 9-10 was used to assay inhibition by Compounds (2)-(8) on the growth of the multidrug resistant cancer cell line MES-SA/DX5, which is a MDR uterine sarcoma cell line.

[2] = system: MDR cell lines (MES-SA/DX5, HL-60/TX1000); experiment: in vitro activity over the two MDR cell lines; assay type: cell-based, human; conditions: Homo sapiens; range over MES-SA/DX5 and HL-60/TX1000; read-out: IC50 against the MDR cell lines
Procedure: as §1, §2, §3, §4

[3] = system: HL-60/TX1000 (multi-drug resistant human myeloid leukemia cell line); experiment: In vitro activity against multi-drug resistant cell line HL-60/TX1000; assay type: cell-based; conditions: HL60/TX1000, HL-60/TX1000 MDR cells (Table 2)
Procedure: as §1, §2, §3, §4

[4] = system: MES-SA (human uterine sarcoma); experiment: In vitro anti-cancer activity, MTS growth inhibition assay, MES-SA; assay type: cell-based
Procedure: (§5) The in vitro activity of the compounds was determined in the following seven human cancer cell lines. MDA435 (human breast cancer), MIP101 (human colon cancer), HL-60 (human myeloid leukemia), U937 (human leukemia), p388 (murine leukemia), DU-145 (human prostate cancer), MES-SA (human uterine sarcoma) were obtained from ATCC (American Type of Culture Collection).
as §1, §2
(§6) The protocol described in Examples 9-10 was used to assay inhibition by Compounds (20) (21) (24) and (28) on the growth of cancer cell lines MES-SA (human uterine sarcoma cell line) and DU-145 (human prostate cancer).

[5] = system: DU-145 (human prostate cancer); experiment: In vitro anti-cancer activity, MTS growth inhibition assay, DU-145; assay type: cell-based
Procedure: as §5, §1, §2, §6

MES-SA and DU-145 = experiment: in vitro activity over MES-SA and DU-145; assay type: cell-based; conditions: Homo sapiens; range over both cell lines; read-out: IC50 against MES-SA and DU-145
Procedure: as §1, §2, §6

[6] = system: HL-60 (human myeloid leukemia); experiment: In vitro anti-cancer activity, MTS growth inhibition assay, HL-60; assay type: cell-based; conditions: HL-60 cells, 72 hours
Procedure: as §5, §1, §2

[7] = system: MIP101 (human colon cancer); experiment: In vitro anti-cancer activity, MTS growth inhibition assay, MIP-101; assay type: cell-based; conditions: MIP-101 cells, 72 hours
Procedure: as §5, §1, §2

p388 (murine leukemia) = experiment: In vitro anti-cancer activity, MTS growth inhibition assay, p388; assay type: cell-based; conditions: Mus musculus, p388 cells, 72 hours
Procedure: as §5, §1, §2

U937 (human leukemia) = experiment: In vitro anti-cancer activity, MTS growth inhibition assay, U-937; assay type: cell-based; conditions: U-937 cells, 72 hours
Procedure: as §5, §1, §2

[8] = system: MDA435 (human breast cancer); experiment: In vitro anti-cancer activity, MTS growth inhibition assay, MDA-435; assay type: cell-based; conditions: MDA-435 cells, 72 hours
Procedure: as §5, §1, §2

[9] = MES-SA/DX5 MDR cells (Table 3, Example 12)
[10] = MES-SA cells (Table 4, Example 13), read-out: IC50 MES-SA
[11] = DU-145 cells (Table 4, Example 13), read-out: IC50 DU-145

| Structure (SMILES) | IC50 [1, 9] [nM] | IC50 [4, 10] [nM] | IC50 [5, 11] [nM] | IC50 (MES-SA and DU-145) [nM] | further results |
| --- | --- | --- | --- | --- | --- |
| N#Cc1ccc(Cc2cc(C(=O)C(=O)Nc3ccc4ncccc4c3)c3ccccn23)cc1 [Compound (5)] | 100 | – | – | – | – |
| CC[C@]1(O)C[C@H]2CN(CCc3c([nH]c4ccccc34)[C@@](C(=O)OC)(c3cc4c(cc3OC)N(C=O)[C@H]3[C@@](O)(C(=O)OC)[C@H](OC(C)=O)[C@]5(CC)C=CCN6CC[C@]43[C@@H]65)C2)C1 [Vincristine] | – | – | – | – | IC50 ([1]; MES-SA/Dx5, MES-SA/DX-5 MDR cells (Table 2)): 1000 nM; IC50 [2]: 1000 to 5000 nM; IC50 [3]: 5000 nM |
| O=C(Nc1ccc2ncccc2c1)C(=O)c1cc(Cc2ccc(Cl)cc2)n2ccccc12 [Compound (3)] | 100 | – | – | – | – |
| Cc1cc(NC(=O)C(=O)c2cc(Oc3ccc(C#N)cc3)n3ccccc23)sn1 [Compound (20), 2-[3-(4-Cyano-phenoxy)-indolizin-1-yl]-N-(3-methyl-isothiazol-5-yl)-2-oxo-acetamide] | – | 50 | 50 | 50 to 100 | – |
| Cc1cc(NC(=O)C(=O)c2cc(Cc3ccccc3)n3ccccc23)sn1 [Compound (6)] | 50 | – | – | – | – |
| Cc1cc(NC(=O)C(=O)c2cc(Cc3ccc(C#N)s3)n3ccccc23)sn1 [Compound (28), 2-[3-(5-cyano-thiophen-2-ylmethyl)-indolizin-1-yl]-N-(3-methyl-isothiazol-5-yl)-2-oxo-acetamide] | – | 100 | 100 | 50 to 100 | – |
| CC(=O)O[C@H]1C(=O)[C@@]2(C)[C@H]([C@H](OC(=O)c3ccccc3)[C@]3(O)C[C@H](OC(=O)[C@H](O)[C@@H](NC(=O)c4ccccc4)c4ccccc4)C(C)=C1C3(C)C)[C@]1(OC(C)=O)CO[C@@H]1C[C@@H]2O [Taxol, reference compound] | 5000 | – | – | – | IC50 [6]: 5 nM; IC50 ([4]; MES-SA cells, 72 hours, MTS assay (Table 1), read-out: IC50): 5 nM; IC50 [2]: 1000 to 5000 nM; IC50 ([5]; DU-145 cells, 72 hours, MTS assay (Table 1), read-out: IC50): 5 nM; IC50 [3]: 5000 nM; IC50 [7]: 500 nM; IC50 (p388 (murine leukemia)): 10 nM; IC50 (U937 (human leukemia)): 5 nM; IC50 [8]: 5 nM |

More lines, main results first:

| IC50 [1, 9] [nM] | IC50 [4, 10] [nM] | IC50 [5, 11] [nM] | IC50 (MES-SA and DU-145) [nM] | Structure (SMILES) | further results |
| --- | --- | --- | --- | --- | --- |
| – | 50 | 50 | 50 to 100 | Cc1ccc2c(C(=O)C(=O)Nc3cc(C)ns3)cc(Cc3ccc(C#N)cc3)n2c1 [Compound (24), 2-[3-(4-Cyano-benzyl)-6-methyl-indolizin-1-yl]-N-(3-methyl-isothiazol-5-yl)-2-oxo-acetamide] | – |
| 50 | – | – | – | Cc1cc(NC(=O)C(=O)c2cc(Cc3ccc(C#N)cc3)n3cc(F)ccc23)sn1 [Compound (4)] | – |
| 60 | – | – | – | Cc1cc(NC(=O)C(=O)c2cc(Cc3ccc(Cl)cc3)n3ccccc23)sn1 [Compound (2)] | – |
| – | 50 | 50 | 50 to 100 | Cc1cc(NC(=O)C(=O)c2cc(N(C)c3ccc(C#N)cc3)n3ccccc23)sn1 [Compound (21), 2-{3-[(4-Cyano-phenyl)-methyl-amino]-indolizin-1-yl}-N-(3-methyl-isothiazol-5-yl)-2-oxo-acetamide] | – |
| 50 | – | – | – | Cc1cc(NC(=O)C(=O)c2cc(Cc3ccc(F)cc3)n3ccccc23)sn1 [Compound (7)] | – |
| 100 | – | – | – | COc1ccc(Cc2cc(C(=O)C(=O)Nc3cc(C)ns3)c3ccccn23)cc1 [Compound (8)] | – |
